According to PubChem BioAssay (NCI):
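Interpolation was linear, between the two tested concentrations surrounding the appropriate level; five concentrations were tested over 48 hours in 96-well plates. Here, GI50 denotes the concentration required for 50% inhibition of growth. TGI denotes the concentration required for complete inhibition of growth.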

Legend:
Experiment in all cases: DTP human tumour cell line panel, 48 h
NCI-H23 lung = test system: NCI-H23 lung
MCF7 breast = test system: MCF7 breast
A549 NSCLC = test system: A549 NSCLC
OVCAR-4 ovarian = test system: OVCAR-4 ovarian
MDA-MB-435 = test system: MDA-MB-435
CCRF-CEM leukemia = test system: CCRF-CEM leukemia
OVCAR-5 ovarian = test system: OVCAR-5 ovarian
SF-268 CNS = test system: SF-268 CNS
786-0 renal = test system: 786-0 renal
HOP-92 NSCLC = test system: HOP-92 NSCLC
CAKI-1 renal = test system: CAKI-1 renal
MOLT-4 leukemia = test system: MOLT-4 leukemia
SK-MEL-28 melanoma = test system: SK-MEL-28 melanoma
M14 melanoma = test system: M14 melanoma
T-47D breast = test system: T-47D breast
HOP-62 NSCLC = test system: HOP-62 NSCLC
SR leukemia = test system: SR leukemia
IGROV1 ovarian = test system: IGROV1 ovarian
SK-MEL-2 melanoma = test system: SK-MEL-2 melanoma
SK-OV-3 ovarian = test system: SK-OV-3 ovarian
COLO 205 colon = test system: COLO 205 colon
UACC-62 melanoma = test system: UACC-62 melanoma
MALME-3M melanoma = test system: MALME-3M melanoma
SK-MEL-5 melanoma = test system: SK-MEL-5 melanoma
SNB-75 CNS = test system: SNB-75 CNS
RXF 393 renal = test system: RXF 393 renal
ACHN renal = test system: ACHN renal
SW-620 colon = test system: SW-620 colon
K-562 leukemia = test system: K-562 leukemia
NCI/ADR-RES ovarian = test system: NCI/ADR-RES ovarian
NCI-H460 lung = test system: NCI-H460 lung
U251 CNS = test system: U251 CNS
RPMI-8226 leukemia = test system: RPMI-8226 leukemia
HL-60(TB) leukemia = test system: HL-60(TB) leukemia
OVCAR-8 ovarian = test system: OVCAR-8 ovarian
SF-539 CNS = test system: SF-539 CNS
A498 renal = test system: A498 renal
HCC-2998 colon = test system: HCC-2998 colon
LOX IMVI melanoma = test system: LOX IMVI melanoma
SNB-19 CNS = test system: SNB-19 CNS
BT-549 breast = test system: BT-549 breast
HT29 colon = test system: HT29 colon
UO-31 renal = test system: UO-31 renal
HCT-116 colon = test system: HCT-116 colon
TK-10 renal = test system: TK-10 renal
DU-145 prostate = test system: DU-145 prostate

C=CCNc1nc2c(N)ncnc2s1
TGI (NCI-H23 lung): > 10 µM
TGI (MCF7 breast): > 10 µM
TGI (A549 NSCLC): > 10 µM
TGI (OVCAR-4 ovarian): > 10 µM
TGI (MDA-MB-435): > 10 µM
TGI (CCRF-CEM leukemia): > 10 µM
TGI (OVCAR-5 ovarian): > 10 µM
TGI (SF-268 CNS): > 10 µM
TGI (786-0 renal): > 10 µM
TGI (HOP-92 NSCLC): > 10 µM
TGI (CAKI-1 renal): > 10 µM
TGI (MOLT-4 leukemia): > 10 µM
TGI (SK-MEL-28 melanoma): > 10 µM
TGI (M14 melanoma): > 10 µM
TGI (T-47D breast): > 10 µM
TGI (HOP-62 NSCLC): > 10 µM
TGI (SR leukemia): > 10 µM
TGI (IGROV1 ovarian): > 10 µM
TGI (SK-MEL-2 melanoma): > 10 µM
TGI (SK-OV-3 ovarian): > 10 µM
TGI (COLO 205 colon): > 10 µM
TGI (UACC-62 melanoma): > 10 µM
TGI (MALME-3M melanoma): > 10 µM
TGI (SK-MEL-5 melanoma): > 10 µM
TGI (SNB-75 CNS): > 10 µM
TGI (RXF 393 renal): > 10 µM
TGI (ACHN renal): > 10 µM
TGI (SW-620 colon): > 10 µM
TGI (K-562 leukemia): > 10 µM
TGI (NCI/ADR-RES ovarian): > 10 µM
TGI (NCI-H460 lung): > 10 µM
TGI (U251 CNS): > 10 µM
TGI (RPMI-8226 leukemia): > 10 µM
TGI (HL-60(TB) leukemia): > 10 µM

O=c1[nH]c(=O)n(C2C[C@@H](O)[C@@H](CO)O2)cc1F (stereo partly drawn)
TGI (OVCAR-8 ovarian): > 100 µM
TGI (SF-539 CNS): > 60.8 µM
TGI (NCI-H23 lung): > 100 µM
GI50 (MCF7 breast): < 0.01 µM
TGI (MCF7 breast): > 100 µM
TGI (A549 NSCLC): > 100 µM
GI50 (CCRF-CEM leukemia): 0.0198 µM
TGI (CCRF-CEM leukemia): > 100 µM
TGI (A498 renal): 7.48 µM
GI50 (OVCAR-5 ovarian): 8.4 µM
TGI (OVCAR-5 ovarian): > 100 µM
TGI (HCC-2998 colon): 4.45 µM
TGI (786-0 renal): > 100 µM
TGI (LOX IMVI melanoma): > 100 µM
TGI (CAKI-1 renal): > 100 µM
GI50 (MOLT-4 leukemia): 0.0375 µM
GI50 (SK-MEL-28 melanoma): 0.433 µM
TGI (SK-MEL-28 melanoma): > 100 µM
TGI (SNB-19 CNS): > 100 µM
TGI (BT-549 breast): > 100 µM
TGI (HOP-62 NSCLC): 0.956 µM
GI50 (SR leukemia): 0.184 µM
TGI (SR leukemia): > 38.1 µM
TGI (UACC-62 melanoma): > 100 µM
TGI (HT29 colon): > 100 µM
TGI (SK-MEL-5 melanoma): 0.385 µM
TGI (SNB-75 CNS): > 21.4 µM
TGI (RXF 393 renal): 13.3 µM
TGI (ACHN renal): > 100 µM
TGI (UO-31 renal): 30.3 µM
GI50 (HCT-116 colon): 0.0289 µM
TGI (HCT-116 colon): > 100 µM
TGI (TK-10 renal): > 100 µM
GI50 (K-562 leukemia): 0.156 µM
TGI (K-562 leukemia): > 100 µM
TGI (NCI-H460 lung): 9.8 µM
TGI (DU-145 prostate): > 100 µM
GI50 (HL-60(TB) leukemia): 0.482 µM
TGI (HL-60(TB) leukemia): > 100 µM
